Measurements as given in ChEMBL document CHEMBL1156180, “Synthesis and bioluminescence-inducing properties of autoinducer (S)-4,5-dihydroxypentane-2,3-dione and its enantiomer” (Bioorg Med Chem Lett, 2010).
The source made the active and inactive calls. The rule behind the calls is not given here.

Target: Autoinducer 2-binding periplasmic protein LuxP (Vibrio harveyi) (UniProt P54300)
Experiment: Induction of Vibrio harveyi BB170 LuxP sensor protein-mediated quorum sensing activity at 0.5 to 5 ug/ml by reporter bioluminescence assay

Autoinducer 2-binding periplasmic protein LuxP (Vibrio harveyi), sequence (P54300 whole entry): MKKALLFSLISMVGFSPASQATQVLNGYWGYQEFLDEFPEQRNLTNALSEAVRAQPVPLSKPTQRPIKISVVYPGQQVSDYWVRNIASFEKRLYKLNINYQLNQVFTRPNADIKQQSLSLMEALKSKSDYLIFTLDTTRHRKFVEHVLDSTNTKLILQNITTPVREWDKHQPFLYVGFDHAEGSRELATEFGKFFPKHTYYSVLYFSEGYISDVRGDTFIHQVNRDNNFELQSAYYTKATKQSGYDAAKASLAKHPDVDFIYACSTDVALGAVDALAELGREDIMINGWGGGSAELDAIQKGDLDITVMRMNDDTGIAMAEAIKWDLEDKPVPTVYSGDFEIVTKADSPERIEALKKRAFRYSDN

Row | Activity | Compound
1 | Active | CC(=O)C(=O)[C@H](O)CO
2 | Active | CC(=O)C(=O)[C@@H](O)CO
